Where a name gives a salt, the structure may show the parent alone.
Test: Solubility in distilled water
Type: physicochemical
Excerpt: In one embodiment, the compositions described herein may further comprise a solvent; a gelling agent; and a diluent.

In the case of O=S(=O)(O)c1ccccc1C=Cc1ccc(-c2ccc(C=Cc3ccccc3S(=O)(=O)O)cc2)cc1 [BBD, 2,2′-([1,1′-Biphenyl]-4,4′-diyldi-2,1-ethenediyl)bis-benzenesulfonic acid disodium salt], the solubility (at 25° C.) is reported as 25 mg/mL and the solubility (at 95° C.) is reported as 300 mg/mL.
